How the values were obtained:
Type in all cases: in vivo, human
[1] = system: children with moderate to severe RDEB; assay: Quality of Life in EB (QOLEB) Questionnaire in clinical trial; conditions: first interim analysis, FIG. 7
Description: In order to check whether beneficial effects could be obtained in human beings, a clinical trial has been performed. In the trial a group of about 30 patients has been selected. Patient enrollment: 28 children with molecularly confirmed diagnosis of moderate to severe RDEB, age 2-16 years (age of 25 months), were enrolled at the EB Center Freiburg. Although pain and itch scores partly reflect the patients' quality of life, specific scores were used. […] Therefore, children under the age of 10 years included their parents' advice when completing the questionnaires, and children under 8 years of age or unable to read, have the parents completed the questionnaire.

[2] = system: children with moderate to severe RDEB; assay: Wong-Baker FACES Scale for Pain in clinical trial; conditions: first interim analysis, FIG. 6
Description: In order to check whether beneficial effects could be obtained in human beings, a clinical trial has been performed. In the trial a group of about 30 patients has been selected. Patient enrollment: 28 children with molecularly confirmed diagnosis of moderate to severe RDEB, age 2-16 years (age of 25 months), were enrolled at the EB Center Freiburg. The Wong-Baker FACES Scale for Pain that uses happy or sad faces shown in the score http://wongbakerfaces.org/) is the preferred method of pain reporting by children. This validated tool is widely used to rate pain severity in children with both chronic and acute pain.

[3] = system: children with moderate to severe RDEB; assay: Birmingham Epidermolysis Bullosa Severity Score (BEBS) in clinical trial; conditions: second interim analysis, baseline (clinic visit 1, day 1) vs clinic visit 5, week 40, FIG. 9
Description: In order to check whether beneficial effects could be obtained in human beings, a clinical trial has been performed. In the trial a group of about 30 patients has been selected. Patient enrollment: 28 children with molecularly confirmed diagnosis of moderate to severe RDEB, age 2-16 years (age of 25 months), were enrolled at the EB Center Freiburg. […] Eleven items are scored: area of damaged skin, involvement of nails, mouth, eyes, larynx and esophagus, scarring of hands, skin cancer, chronic wounds, alopecia and nutritional compromise. The area of damaged skin is allocated 50 points, and the 10 other items 5 points each, giving a maximum score of 100. […] Therefore, an additional EB-specific scoring instrument was used.

[4] = system: children with moderate to severe RDEB; assay: Epidermolysis Bullosa Disease Activity and Scarring Index (EBDASI) in clinical trial
Description: In order to check whether beneficial effects could be obtained in human beings, a clinical trial has been performed. In the trial a group of about 30 patients has been selected. Patient enrollment: 28 children with molecularly confirmed diagnosis of moderate to severe RDEB, age 2-16 years (age of 25 months), were enrolled at the EB Center Freiburg. A validated scoring instrument for EB that assesses response to therapy separately from chronic damage. It is therefore suitable for interventional trials. […] It includes an activity and damage component for: 1. skin; 2. scalp; 3. mucous membranes; 4. nails; 5. other epithelialized surfaces (incl. larynx, esophagus, genitourinary), hands-pseudosyndactyly and skin cancer. Statistical values for EBDASI are shown in FIG. 2 when determined at the visits in the clinic.

RDEB patients = assay: Clinical trial in RDEB patients, overall outcome; conditions: second interim analysis, summary
Protocol: In order to check whether beneficial effects could be obtained in human beings, a clinical trial has been performed. In the trial a group of about 30 patients has been selected. Patient enrollment: 28 children with molecularly confirmed diagnosis of moderate to severe RDEB, age 2-16 years (age of 25 months), were enrolled at the EB Center Freiburg. […] Such parameters were measured in the course of the trial.

[5] = system: children with moderate to severe RDEB; assay: Children's Dermatology Life Quality Index (CDLQI) in clinical trial
Description: In order to check whether beneficial effects could be obtained in human beings, a clinical trial has been performed. In the trial a group of about 30 patients has been selected. Patient enrollment: 28 children with molecularly confirmed diagnosis of moderate to severe RDEB, age 2-16 years (age of 25 months), were enrolled at the EB Center Freiburg. The Children's Dermatology Life Quality Index (CDLQI) was used in addition, since it has a version for young children, age of >4, using cartoon images. It consists of 10 questions regarding how the skin disease has affected the patient's quality of life over the past 1 week, in each of 10 domains, with 4 possible responses graded 0-3 (range of scores 0-30).

[6] = system: CRP, IL6, Serum amyloid A and TNFα; assay: Serum biomarkers of inflammation in clinical trial; conditions: over the trial, FIG. 8
Protocol: A blood sample for serum analysis was collected at all clinic visits. The analyses includes TGF levels, and biomarkers of inflammation and fibrosis, such as TNFα, CRP, ferritin, IL6 (FIG. 4) and amyloid. TGFβ and TNFα was analyzed by specific quantitative ELISAs (RayBiotech) at the EB Center Freiburg, while CRP, ferritin, IL6 and amyloid are measured at the central laboratories of the Medical Centers in Freiburg.

[7] = system: children with moderate to severe RDEB; assay: Morphometric scoring of finger contractures (little span) in clinical trial; conditions: second interim analysis, FIG. 12
Protocol: During the ongoing clinical trial described in the preceding examples, an additional novel assessment parameter was added to measure progression of finger contractures: A morphometric scoring instrument that measures the length of the span when spreading fingers as far as possible. In particular, the following parameters were measured: maximal distance of thumb tip and index finger tip (separately for left hand and right hand and the mean value of both hands), also known as 'little span'. In RDEB, disease progression leads to shortening of the span and development of pseudosyndactylies and […] deformities.

[8] = system: children with moderate to severe RDEB; assay: Itch Assessment Scale for the Pediatric Burn Patients in clinical trial; conditions: values at clinical visits after losartan initiation, FIG. 3
Description: In order to check whether beneficial effects could be obtained in human beings, a clinical trial has been performed. In the trial a group of about 30 patients has been selected. Patient enrollment: 28 children with molecularly confirmed diagnosis of moderate to severe RDEB, age 2-16 years (age of 25 months), were enrolled at the EB Center Freiburg. The Itch Assessment Scale for the Pediatric Burn Patients, a validated instrument for assessing skin burns, which are similar to RDEB. The scale is based on the Itch Man Scale developed by Blakeney & Marvin (2000), and was used to evaluate the intensity of itch of the trial participants. […] Values taken at clinical visits were determined.

[9] = system: children with moderate to severe RDEB; assay: Safety and tolerability in clinical trial (adverse events, blood pressure, heart function)
Protocol: Furthermore, the proPNB(pg/ml) was also measured on each visit to evaluate for signs of heart failure.

[10] = second interim analysis, FIG. 10
[11] = first interim analysis, after 18 patients had completed the study

Compound: CCCCc1nc(Cl)c(CO)n1Cc1ccc(-c2ccccc2-c2nnn[nH]2)cc1 [Losartan, 2-Butyl-4-chloro-1-[[2′-(1H-tetrazol-5-yl)[1,1-biphenyl]-4-yl]methyl]-1H-imidazol-5-methanol]
- Quality of life score QoLEB [1]: improvement
- Pain assessment score [2]: went statistically to a lower level
- BEBS [3]: improved
- EBDASI score ([4]; during treatment, clinic visit 1 to clinic visit 5, FIG. 2): improved substantially
- EBDASI activity score ([4]; first interim analysis, FIG. 7): improved
- EBDASI damage score ([4]; first interim analysis, FIG. 7): improved
- EBDASI activity score [4, 10]: showed improvement
- EBDASI damage score [4, 10]: showed improvement
- EBDASI score [4, 10]: significantly improved
- EBDASI total score (sum of activity and damage score) [4, 10]: showed improvement
- Disease progression (RDEB patients): reduced disease progression
- Disease symptoms (RDEB patients): improved disease symptoms
- Quality of life score CDLQI ([5]; first interim analysis, FIG. 7): improvement
- CDLQI score ([5]; second interim analysis, baseline (clinic visit 1, day 1) vs clinic visit 5, week 40, FIG. 11): amelioration of the quality of life
- CRP [6]: went down
- IL6 [6]: went down
- Serum amyloid A [6]: went down
- TNFα [6]: went down
- Little span (distance between tip of the thumb and tip of the index finger) [7]: increase
- Itch score [8]: a reduction of itch
- Ejection fraction (heart's pump function) ([9]; first interim analysis): no differences
- Adverse events related to the Losartan treatment [9, 11]: no adverse events had been observed
- Overall safety and tolerability of treatment [9, 11]: safe and well tolerated
- proPNB, signs of heart failure ([9]; measured on each visit): no significant changes
- Impact on the blood pressure ([9]; normotensive patients, dosage regimen as disclosed): without negative impact
- Number of adverse events possibly related to trial medication (pruritus, not serious) ([9]; second interim analysis): 1
- Safety of treatment ([9]; second interim analysis): safe

Reference: patent US12521373B2, “Use of losartan for the treatment of fibrotic diseases, in particular epidermolysis bullosa” (Crowd Pharma Losartan GmbH & Co. KG, priority 2020, dated 2026)
